# Assay results published in PMC5339480, “Mutagenic and Cytotoxicity LQB 123 Profile: Safety and Tripanocidal Effect of a Phenyl-t-Butylnitrone Derivative” (BioMed Research International, 2017).
# How the values were obtained:
# Salmonella = conditions: cited from earlier work
# [1] = test system: Salmonella typhimurium TA1535; test: Salmonella/microsome assay, TA1535
# Protocol: (§1) Stationary growth cultures of histidine auxotrophic Salmonella typhimurium (2 × 10^9 cells/mL) TA97, TA98, TA100, TA102, and TA1535 strains were obtained at 37°C in lysogenic broth (LB, 10 g/L tryptone; 5 g/L yeast extract; 10 g/L NaCl) containing 8 μg/mL ampicillin and 2 μg/mL tetracycline (only for TA102). All strains used in the present work were from our laboratory collection. […] Then, the Ames test was performed according to Maron and Ames. DMSO was used as a negative control. […] All chemicals were from Sigma Co.
# [2] = test system: Salmonella typhimurium TA100; test: Salmonella/microsome assay, TA100
# Protocol: as §1
# T. cruzi = test system: T. cruzi; design: method as in PMID 20510218; conditions: treated only with PBN; cited from earlier work
# [3] = test system: Salmonella typhimurium TA98; test: Salmonella/microsome assay, TA98; format: cell-based; conditions: +S9, positive control (PC) 517 μM
# Text: (§2) DMSO was used as a negative control. […] All chemicals were from Sigma Co.
# [4] = test system: Salmonella typhimurium TA97; test: Salmonella/microsome assay, TA97; format: cell-based; conditions: +S9, positive control (PC) 517 μM
# Text: as §2
# [5] = TA1535, −S9, positive control (PC) 154 μM
# [6] = TA100, −S9, positive control (PC) 769 μM
smiles,measurement,setting,value
O=C(Cn1ccnc1[N+](=O)[O-])NCc1ccccc1 [benznidazole],dose giving the maximum mutagenic rate,Salmonella,100 micrograms per plate
"[N-]=[N+]=[N-].[Na+] [AS, sodium azide]",MI (mutagenicity index),[1]; [5],47.3
same,"Number of revertant colonies per plate, Mean ± SD",[1]; [5],615 ± 83^∗
same,MI (mutagenicity index),[2]; [6],3.2
same,"Number of revertant colonies per plate, Mean ± SD",[2]; [6],637 ± 52^∗
"CC(C)(C)/[N+]([O-])=C/c1ccccc1 [PBN, alpha-phenyl-tert-butyl nitrone]",parasite persistence,T. cruzi,no decline in parasite persistence
"Nc1ccc2cc3ccccc3cc2c1 [2-AA, 2-aminoanthracene]",MI (mutagenicity index),[1]; Salmonella typhimurium,10.1
same,"Number of revertant colonies per plate, Mean ± SD",[1]; Salmonella typhimurium,168 ± 18^∗
same,MI (mutagenicity index),[2]; Salmonella typhimurium,4.6
same,"Number of revertant colonies per plate, Mean ± SD",[2]; Salmonella typhimurium,1257 ± 107^∗
same,MI (mutagenicity index),[3],16.0
same,"Number of revertant colonies per plate, Mean ± SD",[3],291 ± 36^∗
same,MI (mutagenicity index),[4],9.0
same,"Number of revertant colonies per plate, Mean ± SD",[4],1488 ± 139^∗
